Experimental data: paper PMC12631102, “SYT4 Interacts with PSMC6 to Facilitate Malignant Progression in Gastric Carcinoma via Activating Wnt/β-catenin Signaling” (International Journal of Biological Sciences, 2025)

Molecular target: T1, Synaptotagmin-4 (SYT4) (Homo sapiens, UniProt Q9H2B2)
T1 construct: Recombinant SYT4 protein
T1 sequence (Q9H2B2 1-425): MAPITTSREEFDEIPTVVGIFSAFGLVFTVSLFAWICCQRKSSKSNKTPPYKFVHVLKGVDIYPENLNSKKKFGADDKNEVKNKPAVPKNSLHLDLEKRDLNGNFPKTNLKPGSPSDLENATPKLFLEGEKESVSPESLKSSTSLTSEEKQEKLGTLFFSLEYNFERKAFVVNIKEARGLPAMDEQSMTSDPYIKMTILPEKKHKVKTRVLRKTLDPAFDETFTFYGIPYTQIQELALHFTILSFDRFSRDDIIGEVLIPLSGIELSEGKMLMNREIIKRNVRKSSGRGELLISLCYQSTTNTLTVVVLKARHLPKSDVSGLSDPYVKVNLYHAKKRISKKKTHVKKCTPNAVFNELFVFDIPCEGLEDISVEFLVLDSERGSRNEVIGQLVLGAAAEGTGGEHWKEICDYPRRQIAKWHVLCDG
Experiment: SPR (Biacore T200, SYT4 immobilized on CM5 chip)
Format: binding

## C=CC(=O)Nc1ccc2[nH]c(=O)n(C3CCN(Cc4ccc(-c5nc6cc[nH]c(=O)c6cc5-c5ccccc5)cc4)CC3)c2c1 [borussertib]
  Kd: 16 µM
